The source of these data is US12630524B2, “Pleuromutilin in derivatives for treating viral infections” (ARIVA MED GMBH, priority 2020, dated 2026).

As a reminder, the MIC is the smallest concentration in the dilution series that meets the test's criterion for growth inhibition.

In series [1] the test system is Staphylococcus aureus ATCC49951. The series is described as follows: Broth microdilution MIC (CLSI). (Broth dilution looks for growth in wells or tubes with falling amounts of substance.)
The subject of series [2] is Staphylococcus aureus cfr (+). Description: Broth microdilution MIC (CLSI).
Series [3] relates to Streptococcus agalactiae lsa(E). The series is described as follows: Broth microdilution MIC (CLSI).
Series [4] concerns Streptococcus pneumoniae ATCC49619. The series is described as follows: Broth microdilution MIC (CLSI).
In series [5] the test system is Staphylococcus aureus vga(A) (+). Description: Broth microdilution MIC (CLSI).
Series [6] can be described thus: Cell viability of uninfected HEp2 drug control wells (XTT), RSVA2 assay. As to conditions: human, HEp2 cells (uninfected drug control wells); HEp2 cells, RSVA2 assay; read-out: TC50. The series is classed as cell-based, human.
The subject of series [7] is HEp2 cells. Described as above. It counts as cell-based, human. As to conditions: HEp2.
The subject of series [8] is respiratory syncytial virus (RSV ALONG). Description: Anti-RSV cytoprotection assay, strain RSV ALONG. It counts as cell-based.
The nature of series [9]: Metabolic stability in primary human hepatocytes. Conditions: 1 μg/mL, 4 hours, 37° C.
Series [10] is described as follows: Metabolic stability in primary mouse hepatocytes. Conditions: 1 μg/mL, 4 hours, 37° C.
Series [11] is described as follows: in vitro. As to conditions: human.
For series [12], the system named is human respiratory syncytial virus (strain RSVA2). The series is described as follows: Anti-RSV cytoprotection assay (strain RSVA2). Conditions: for reduction of viral CPE: HEp2 / RSVA2; for EC50: human respiratory syncytial virus, HEp-2, 144 h, HEp2 cells infected with RSVA2, 6 days post infection, XTT. It counts as cell-based.
Series [13] relates to MRC-5 cells. As to conditions: for cytotoxic effect on the viability of the cell control: MRC-5.
Series [14] can be described thus: in vitro. As to conditions: human. The source holds these as a separate data set.
The test system of series [15] is Measles virus strain Edmonston. The series is described as follows: microbe, parasite or virus in culture. It counts as cell-based. As to conditions: for EC50: Measles morbillivirus, HeLa.
In series [16] the test system is respiratory syncytial virus (RSV B18537). Description: Anti-RSV cytoprotection assay, strain RSV B18537. It counts as cell-based.
The nature of series [17]: Cellular toxicity to HEp2 cells, RSV ALONG / RSV B18537 assays. Conditions: human, RSV ALONG table, read-out: TC50 (the source's name). It counts as cell-based.
For series [18], the system named is alpha coronavirus 229E (HCoV-229E or CoV229E). Description: Anti-coronavirus cytoprotection assay (inhibition of virus-induced CPE). The series is classed as cell-based, human corona virus (CoV229E). As to conditions: for reduction of viral CPE: MRC-5 / CoV229E; for EC50: Human coronavirus 229E, MRC5, 144 h. As to the method: Objective: The assay measured the inhibition of virus-induced cytopathic effects (CPE) and cell viability following alpha coronavirus 229E (HCoV-229E or CoV229E) in MRC-5 cells 6 days post infections with the virus by various concentrations of the investigated compounds.
Following incubation at 37° C. and at 5% CO2 for 6 days, cell viability was measured by XTT tetrazolium dye staining. The optical density of the cell culture plate was determined spectrophotometrically at 450 and 650 nm. Percent reduction of the virus-infected cells and the percent cell viability of uninfected drug control wells were calculated to determine the effective concentration at which 50% of cytopathic effect was inhibited (EC50) and the cytotoxic concentration (TC50) using four parameter curve fit analysis. The antiviral compound Remdesivir served as positive control.

Series [19] relates to influenza A virus strain (PR8). As to conditions: influenza A PR8, concentration of 2 mg/mL; cited from earlier work.
Series [20] deals with vesicular stomatitis virus (VSV). As to conditions: cited from earlier work.
Series [21] has as its system herpes simplex type 1 (HSV-1) virus. As to conditions: cited from earlier work.
Series [22] concerns polio virus. As to conditions: cited from earlier work.
The test system of series [23] is HeLa cells. Description: Cellular toxicity to HeLa cells, measles assay. As to conditions: Ribavirin in μg/mL.
For series [24], the system named is influenza A virus, porcine reproductive and respiratory syndrome virus (PRRSV) type 1 and 2. Conditions: viral up-take assay 4 hours post inoculation, WO 2009/106839; cited from earlier work.
Where [25] appears, read: Staphylococcus aureus cfr (+) (n = 2), Lefamulin resistant.
[26] abbreviates: Streptococcus agalactiae lsa(E) (n = 2), Lefamulin resistant.
[27] abbreviates: Staphylococcus aureus vga(A) (+), Lefamulin resistant.
The mark [28] stands for this setting: Staphylococcus aureus, ATCC49951.
The mark [29] stands for this setting: MRC-5 cells infected with CoV229E, 6 days post infection, XTT, read-out: EC50.

≈ marks a conversion by molar mass, not a printed value. Like-named read-outs stand apart in the source and are kept apart here.

In the case of “12-epi-12-desvinyl-14-O-[(azepan-4-ylsulfanyl)-acetyl]-12-((E)-2-pyridin-3-yl-ethenyl) mutilin hydrochloride [Example 154, reference compound]”, the MIC in series [1] (Staphylococcus aureus ATCC49951, CAMHB) was at most 0.03 µg/mL; in series [2] (setting [25]), 0.5 to 4 µg/mL; in series [3] (setting [26]) it was 4 to 8 µg/mL; in series [4], at most 0.03 µg/mL; in series [5] (setting [27]) it was 2 to 4 µg/mL.
As for `Cc1nccnc1/C=C/[C@@]1(C)C[C@@H](OC(=O)CSC2CCNCC2)[C@]2(C)[C@H](C)CC[C@]3(CCC(=O)[C@H]32)[C@@H](C)[C@@H]1O` [BC 9842, 12-epi-12-desvinyl-14-O-[(Piperidin-4-ylsulfanyl]-acetyl]-12-[2-(3-methyl-pyrazin-2-yl)-ethenyl]-mutilin], the MIC is at most 0.03 µg/mL in [1] (setting [28]); 1 to 2 µg/mL (≈ 1.75 to 3.51 µM) in [2] (Staphylococcus aureus); at most 4 µg/mL in series [2] (setting [25]); 0.5 to 1 µg/mL (≈ 0.877 to 1.75 µM) in series [3] (Streptococcus agalactiae); at most 4 µg/mL in series [3] (setting [26]); at most 0.03 µg/mL in [4]. For the same compound, the MIC in series [5] (Staphylococcus aureus) is 4 µg/mL (≈ 7.02 µM); in series [5] (setting [27]), at most 4 µg/mL. Also, the CC50 at 6 days in [6] and in [14] was 22.4 µM in each case. In addition, the “cytotoxic effect on the viability of the cell control” value is reported as “no cytotoxic effect” in series [7] (5 μM); “no cytotoxic effect” in series [7] (10 μM); “cytotoxic effect” in series [7] (50 μM); “no cytotoxic effect” in [13] (5 μM); “no cytotoxic effect” in series [13] (10 μM); “cytotoxic effect” in [13] (50 μM). In addition, the EC50 in [8] (human respiratory syncytial virus, HEp-2) is above 22400 nM; in series [12], 4.58 µM; in series [15], 5.36 µM; in [16] (human respiratory syncytial virus, HEp-2, HEp2 cells infected with RSV B18537, MOI 0.001) it was 6.77 µM; in series [18] (setting [29]), 1.92 µM. The “Metabolic stability against primary hepatocytes [% parent compound]” value in [9] is above 20%; in series [9] (listed as BC-9842) it was above 20%; in [9] (listed as BC-¬9842) it was 24.7%; in [10] it was above 60%; in [10] (listed as BC-9842), above 60%; in series [10] (listed as BC-¬9842), 63.8%. The figures for the CC50 in series [11] and in series [17] were 24.1 µM and 22.4 µM, respectively. For the same compound, the “reduction of viral CPE” value in [12] (5 μM) turned out to be 52.85%; in series [12] (10 μM) it was 69.33%; in series [15] (10 μM, HeLa / Measles virus) it was 69%; in [18] (5 μM) it was 100%; in [18] (10 μM), 100%.
On to `C=C[C@]1(C)C[C@@H](OC(=O)CS[C@@H]2CC[C@@H](N)C[C@H]2O)[C@]2(C)[C@H](C)CC[C@]3(CCC(=O)[C@H]32)[C@@H](C)[C@@H]1O` [Lefamulin, reference compound], for which the MIC in series [1] (setting [28]) was at most 0.03 µg/mL; in [2] (Staphylococcus aureus), 16 µg/mL (≈ 31.5 µM); in series [3] (Streptococcus agalactiae), 16 µg/mL (≈ 31.5 µM); in [4], at most 0.03 µg/mL; in series [5] (Staphylococcus aureus) it was 8 µg/mL (≈ 15.8 µM).
With `C=C[C@]1(C)C[C@@H](OC(=O)CO)[C@]2(C)[C@H](C)CC[C@]3(CCC(=O)[C@H]32)[C@@H](C)[C@@H]1O` [Pleuromutilin], the results for the antiviral activity result in series [19] and in series [22] were “antiviral activity” and “did not show antiviral activity”, respectively. The “activity against vesicular stomatitis virus” value in series [20] was “activity”. Moreover, the “CPE50 (concentration conferring 50% protection of the cytopathic effect induced by HSV-1)” value in [21] was 15 µg/mL. Besides, the EC50 in [21] (read-out: CPE50 (concentration conferring 50% protection of the cytopathic effect induced by HSV-1)) was 40 µM.
On to `CCC(CC)COC(=O)[C@H](C)N[P@](=O)(OC[C@H]1O[C@@](C#N)(c2ccc3c(N)ncnn23)[C@H](O)[C@@H]1O)Oc1ccccc1` [Remdesivir, reference compound], for which the CC50 in [13] (human) was above 5 µM. Also, the EC50 in series [18] was determined as 0.11 µM.
In the case of `NC(=O)c1ncn([C@@H]2O[C@H](CO)[C@@H](O)[C@H]2O)n1` [Ribavirin, reference compound], in [15], the EC50 was determined as 1.88 µg/mL. Also, the TC50 in series [23] was 21.6 µg/mL (≈ 88.4 µM).
As to `C=C[C@]1(C)C[C@@H](OC(=O)CSCCN(CC)CC)[C@]2(C)[C@H](C)CC[C@]3(CCC(=O)[C@H]32)[C@@H](C)[C@@H]1O` [Tiamulin, reference compound], the “viability (cell control)” value in series [7] (10 μM) came out at 84%; in series [7] (50 μM) it was 70.0%. Besides, the “reduction of viral CPE” value is on record as 16.76% in series [12] (10 μM), 43.28% in series [12] (50 μM), 10.53% in [18] (10 μM) and 81.68% in series [18] (50 μM). For the same compound, the figures for the EC50 in series [12] and in series [18] (setting [29]) were above 67.9 µM and 24.4 µM, respectively. The “cytotoxic effect on the viability of the cell control” value in series [13] (10 μM) is on record as “no cytotoxic effect”; in [13] (50 μM), “cytotoxic effect”.
As for `C=C[C@]1(C)C[C@@H](OC(=O)CSC(C)(C)CNC(=O)[C@H](N)C(C)C)[C@]2(C)[C@H](C)CC[C@]3(CCC(=O)[C@H]32)[C@@H](C)[C@@H]1O` [Valnemulin], the antiviral activity result in [24] is on record as “did not exhibit antiviral activity”.
Regarding TMC353121 [reference compound], the EC50 in series [8] (RSV A strain (RSV ALONG), HEp2, text, read-out: EC50) was found to be 0.01 nM; in series [16] (RSV B strain (RSV B18537), HEp2, text), 1e-05 µM.
